Data set [1] addresses T1, Nuclear factor erythroid 2-related factor 2 (Mus musculus) (UniProt Q60795).
T1 sequence (whole entry): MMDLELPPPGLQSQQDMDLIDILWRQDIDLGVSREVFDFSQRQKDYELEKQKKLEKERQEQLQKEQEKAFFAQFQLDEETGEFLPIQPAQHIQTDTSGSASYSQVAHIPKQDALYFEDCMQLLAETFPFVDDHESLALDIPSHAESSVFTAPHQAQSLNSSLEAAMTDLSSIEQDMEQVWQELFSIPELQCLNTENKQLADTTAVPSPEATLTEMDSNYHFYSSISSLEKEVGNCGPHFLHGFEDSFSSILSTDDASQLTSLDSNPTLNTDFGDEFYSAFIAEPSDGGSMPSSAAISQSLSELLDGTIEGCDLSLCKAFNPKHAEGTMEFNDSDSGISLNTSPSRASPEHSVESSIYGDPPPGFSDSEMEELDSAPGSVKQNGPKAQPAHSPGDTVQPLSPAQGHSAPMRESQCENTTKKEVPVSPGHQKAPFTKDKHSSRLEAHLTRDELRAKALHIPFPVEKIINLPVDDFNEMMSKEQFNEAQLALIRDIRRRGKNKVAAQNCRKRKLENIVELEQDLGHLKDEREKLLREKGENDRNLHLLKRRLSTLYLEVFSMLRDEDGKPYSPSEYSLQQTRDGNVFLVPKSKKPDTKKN
The data set is described as follows: Activation of Nrf2 in LPS-stimulated mouse AML12 cells assessed as upregulation of Akr1c1 mRNA expression by measuring fold change at 10 uM incubated for 16 hrs relative to sulforaphane. In kind it is cell-based. The note with it: filed as activator.

Data set [2] has as its target T1, Nuclear factor erythroid 2-related factor 2 (Mus musculus). The data set is described as follows: Activation of Nrf2 in LPS-stimulated mouse AML12 cells assessed as upregulation of HO-1 mRNA expression incubated for 16 hrs by RT-qPCR analysis. In kind it is cell-based. To be noted: filed as activator, dose 0.5-10 µM. For orientation: In qPCR the cycle at which signal appears reflects the starting amount.

Data set [3] shares this target. The experiment in a line: Activation of Nrf2 in LPS-stimulated mouse AML12 cells assessed as upregulation of GCLM mRNA expression incubated for 16 hrs by RT-qPCR analysis. To be noted: filed as activator, dose 0.5-10 µM. It counts as cell-based.
The target is the same in data set [4]. The data set is described as follows: Activation of Nrf2 in LPS-stimulated mouse AML12 cells assessed as upregulation of HO-1 protein level incubated for 16 hrs by Western blot analysis. In kind it is cell-based. The note with it: filed as activator, dose 0.5-10 µM.
For data set [5] the target is unchanged. The experiment in a line: Activation of Nrf2 in LPS-stimulated mouse AML12 cells assessed as upregulation of GCLM protein level incubated for 16 hrs by Western blot analysis. It counts as cell-based. To be noted: filed as activator, dose 0.5-10 µM. For orientation: In western blotting, separated proteins are transferred to a membrane and probed.
The nature of data set [6]: Drug concentration in plasma of APAP-induced acute liver injury male C57BL/6 mouse model at 25 mg/kg, ip pre-administered with compound for 1 hr followed by APAP induction and measured after 12 hrs by Mass spectrometric analysis. In kind it is ADME, organism-based.
The nature of data set [7]: Drug concentration in liver of APAP-induced acute liver injury male C57BL/6 mouse model at 12.5 mg/kg, ip pre-administered with compound for 1 hr followed by APAP induction and measured after 12 hrs by Mass spectrometric analysis. In kind it is ADME, organism-based. To be noted: read-out: Ct.
A short description of data set [8]: Drug concentration in liver of APAP-induced acute liver injury male C57BL/6 mouse model at 25 mg/kg, ip pre-administered with compound for 1 hr followed by APAP induction and measured after 12 hrs by Mass spectrometric analysis. It counts as ADME, organism-based. The note with it: read-out: Ct.
For data set [9], the system named is Mus musculus. The experiment in a line: Anti-inflammatory activity against APAP-induced male C57BL/6 mouse model of acute liver injury assessed as upregulation of HO-1 mRNA level in liver administered intraperitoneally and measured after 12 hrs by RT-qPCR analysis. It counts as functional, organism-based. The note with it: dose 12.5-25 mg/kg, route ip.
For data set [10], the system named is Mus musculus. The experiment in a line: Anti-inflammatory activity against APAP-induced male C57BL/6 mouse model of acute liver injury assessed as restoration of HO-1 protein level in liver at 12.5 to 25 mg/kg, ip measured after 12 hrs by Western blot analysis. It counts as functional, organism-based. The note with it: dose 12.5-25 mg/kg.
The subject of data set [11] is Mus musculus. The data set is described as follows: Anti-inflammatory activity against APAP-induced male C57BL/6 mouse model of acute liver injury assessed as restoration of GCLM protein level in liver at 12.5 to 25 mg/kg, ip measured after 12 hrs by Western blot analysis. It counts as functional, organism-based. The note with it: dose 12.5-25 mg/kg.
In data set [12] the test system is Mus musculus. The data set is described as follows: Hepatoprotective activity in APAP-induced male C57BL/6 mouse model of acute liver injury assessed as reduction in ALT level in liver at 12.5 to 25 mg/kg, ip measured after 12 hrs. In kind it is functional, organism-based. To be noted: dose 12.5-25 mg/kg.
The subject of data set [13] is Mus musculus. The data set is described as follows: Hepatoprotective activity in APAP-induced male C57BL/6 mouse model of acute liver injury assessed as reduction in AST level in liver at 12.5 to 25 mg/kg, ip measured after 12 hrs. It counts as functional, organism-based. To be noted: dose 12.5-25 mg/kg.
The subject of data set [14] is Mus musculus. The experiment in a line: Hepatoprotective activity in APAP-induced male C57BL/6 mouse model of acute liver injury assessed as attenuation of catalase (CAT) level in liver at 12.5 to 25 mg/kg, ip measured after 12 hrs. To be noted: dose 12.5-25 mg/kg. It counts as functional, organism-based.
The subject of data set [15] is Mus musculus. The data set is described as follows: Anti-inflammatory activity in APAP-induced C57BL/6 mouse model of acute liver injury assessed as reduction in macrophage aggregation in liver at 12.5 to 25 mg/kg, ip measured after 12 hrs by F4/80 staining based analysis. To be noted: dose 12.5-25 mg/kg. In kind it is functional, organism-based.
In data set [16] the test system is Mus musculus. The experiment in a line: Anti-inflammatory activity in APAP-induced C57BL/6 mouse model of acute liver injury assessed as reduction in IL-6 mRNA level in liver at 12.5 to 25 mg/kg, ip measured after 12 hrs by ELISA. It counts as functional, organism-based. To be noted: dose 12.5-25 mg/kg.
Data set [17] has as its system Mus musculus. The experiment in a line: Anti-inflammatory activity in APAP-induced C57BL/6 mouse model of acute liver injury assessed as reduction in TNFalpha level in serum at 12.5 to 25 mg/kg, ip measured after 12 hrs by ELISA. In kind it is functional, organism-based. The note with it: dose 12.5-25 mg/kg. (In general: In an ELISA, binding on a coated surface is turned into a signal by an enzyme label.)

Data set [18] is described as follows: Toxicity in C57BL/6J mouse assessed as histopathological change in respiratory tissue at 25 mg/kg, ip by H and E staining based analysis. The note with it: in vivo. It counts as organism-based.
A short description of data set [19]: Tmax in Sprague-Dawley rat at 10 mg/kg, po. In kind it is ADME, organism-based. To be noted: in vivo.
Data set [20] is described as follows: AUC (0 to t) last in Sprague-Dawley rat at 1 mg/kg, iv. The note with it: in vivo. In kind it is ADME, organism-based.
The test system of data set [21] is Mus musculus. The experiment in a line: Hepatoprotective activity in APAP-induced Nrf2 knockout male C57BL/6 mouse model of acute liver injury assessed as effect on AST level in liver at 25 mg/kg, ip preadministered with compound followed by APAP induction and measured after 12 hrs. In kind it is functional, organism-based.
For data set [22], the system named is Mus musculus. The data set is described as follows: Anti-inflammatory activity in APAP-induced Nrf2 knockout male C57BL/6 mouse model of acute liver injury assessed as increase in F4/80 positive cells in liver at 25 mg/kg, ip preadministered with compound followed by APAP induction and measured after 12 hrs by staining based analysis. It counts as functional, organism-based.

The source made the active and inactive calls. The calls are words filed in the database; no cut-off is given here.

As usually defined, the Tmax is the time at which the peak concentration occurs. `COc1ccc(-c2cc(=O)c3ccc(NS(=O)(=O)c4ccc(F)cc4)cc3o2)cc1`: in data set [1], the fold change (FC) worked out at 1.8. Further, the Activity entry is “Dose-dependent-effect” in [2]; “Dose-dependent-effect” in data set [3]; “Dose-dependent-effect” in data set [4]; “Dose-dependent-effect” in [5]; “Dose-dependent-effect” in the data set with Mus musculus [9]; “Non-toxic” in data set [18]. For the same compound, the Activity result in the data set on Mus musculus [21] is “No effect”. In addition, the concentration at 13 h in [6] was determined as 155 ng/mL; in data set [7] it was 175 ng/g; in data set [8] it was 485 ng/g. Moreover, the outcome in the data set with Mus musculus [10], in the data set on Mus musculus [11], with Mus musculus [12], in the data set on Mus musculus [13], in the data set on Mus musculus [14] and in the data set on Mus musculus [15] was Active. For the same compound, the outcome in the data set with Mus musculus [16] and in the data set on Mus musculus [17] was Active. Also, the Tmax in data set [19] stood at 1.5 h. The compound further displayed an AUCt in data set [20] of 3869 ng·h/mL. Besides, in the data set on Mus musculus [22], the result was inactive.

(Values after ChEMBL document CHEMBL6182905, “Fluorinated sulfonamide-flavonoid derivatives as novel Keap1-Nrf2 inhibitors: Potent induction of cytoprotective gene HO-1 in vivo” (Eur J Med Chem, 2025).)
